# In patent publication US10442803B2, “Tricyclic heterocycles as bet protein inhibitors” (Incyte Corporation, priority 2013, dated 2019):
# Counter-ions that a name gives are not always drawn.
# Tested on: KMS.12.BM cells
# Assay: KMS.12.BM cell viability assay
# Format: cell-based
# Conditions: 72 h; KMS.12.BM human myeloma cells, 3 days, Cell Titer-GLO ATP quantitation; read-out: KMS cellular IC50
# How it was run: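 IC50 derived from luminescent ATP quantitation (Cell Titer-GLO) of viable cells after 3-day compound treatment. KMS.12.BM human myeloma line seeded at 5000 cells/well in RPMI with 10% FBS.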
row,Compound,IC50 [µM]
1,"Cc1nnc2ccc3c(cc(C(=O)N4CC(C#N)C4)n3Cc3ccccc3)n12 [Example 60, 1-[(6-benzyl-1-methyl-6H-pyrrolo[2,3-e][1,2,4]triazolo[4,3-a]pyridin-7-yl)carbonyl]azetidine-3-carbonitrile]",≤ 1
2,"CNC(=O)Nc1cc2c(cc(C)n2Cc2cc(Cl)cc(CN3CCCC3)c2)n2c(C)nnc12 [Example 142, N-{6-[3-Chloro-5-(pyrrolidin-1-ylmethyl)benzyl]-1,7-dimethyl-6H-pyrrolo[2,3-e][1,2,4]triazolo[4,3-a]pyridin-4-yl}-N′-methylurea bis(trifluoroacetate) salt]",≤ 1
3,"Cc1cc2c(cc(NC3CCN(C)CC3)c3nnc(C)n32)n1Cc1ccccc1 [Example 207, 6-Benzyl-1,7-dimethyl-N-(1-methylpiperidin-4-yl)-6H-pyrrolo[2,3-e][1,2,4]triazolo[4,3-a]pyridin-4-amine]",≤ 1
4,"Cc1nnc2ccc3c(cc(C(=O)NCC4CC4)n3Cc3cccc(Cl)c3)n12 [Example 114, 6-(3-Chlorobenzyl)-N-(cyclopropylmethyl)-1-methyl-6H-pyrrolo[2,3-e][1,2,4]triazolo[4,3-a]pyridine-7-carboxamide trifluoroacetate salt]",≤ 1
5,"Cc1nnc2ccc3c(cc(-c4ccn(CCN5CCOCC5)n4)n3Cc3ccccc3)n12 [Example 77, 6-benzyl-1-methyl-7-[1-(2-morpholin-4-ylethyl)-1H-pyrazol-3-yl]-6H-pyrrolo[2,3-e][1,2,4]triazolo[4,3-a]pyridine]",≤ 1
6,"CCCNc1cc2c(cc(C)n2Cc2ccccc2)n2c(C)nnc12 [Example 262, 6-Benzyl-N-propyl-1,7-dimethyl-6H-pyrrolo[2,3-e][1,2,4]triazolo[4,3-a]pyridin-4-amine]",1 to 10
7,"CCCCC(c1ccccc1)n1c(C)cc2c1ccc1nnc(C)n12 (racemic) [Example 24, 1,7-dimethyl-6-(1-phenylpentyl)-6H-pyrrolo[2,3-e][1,2,4]triazolo[4,3-a]pyridine]",1 to 10
8,"Cc1nnc2ccc3c(cc(-c4ccn(C5CN(S(=O)(=O)C6CC6)C5)n4)n3Cc3cccc(Cl)c3)n12 [Example 165, 6-(3-Chlorobenzyl)-7-{1-[1-(cyclopropylsulfonyl)azetidin-3-yl]-1H-pyrazol-3-yl}-1-methyl-6H-pyrrolo[2,3-e][1,2,4]triazolo[4,3-a]pyridine trifluoroacetate salt]",≤ 1
9,"Cc1cc2c(ccc3nnc(C)n32)n1Cc1ccc(CN2CC(O)C2)cc1 [Example 52, 1-{4-[(1,7-dimethyl-6H-pyrrolo[2,3-e][1,2,4]triazolo[4,3-a]pyridin-6-yl)methyl]benzyl}azetidin-3-ol]",1 to 10
10,"Cc1cc2c(ccc3nnc(C)n32)n1Cc1cccc(CN2CCCCC2)c1 [Example 46, 1,7-dimethyl-6-[3-(piperidin-1-ylmethyl)benzyl]-6H-pyrrolo[2,3-e][1,2,4]triazolo[4,3-a]pyridine]",≤ 1
11,"Cc1nnc2ccc3c(cc(-c4ccn(CCC(N)=O)n4)n3Cc3cccc(Cl)c3)n12 [Example 159, 3-{3-[6-(3-Chlorobenzyl)-1-methyl-6H-pyrrolo[2,3-e][1,2,4]triazolo[4,3-a]pyridin-7-yl]-1H-pyrazol-1-yl}propanamide trifluoroacetate salt]",≤ 1
12,"Cc1nnc2ccc3c(cc(-c4ccn(C5(CC#N)CN(S(C)(=O)=O)C5)n4)n3Cc3ccccc3)n12 [Example 92, [3-[3-(6-benzyl-1-methyl-6H-pyrrolo[2,3-e][1,2,4]triazolo[4,3-a]pyridin-7-yl)-1H-pyrazol-1-yl]-1-(methylsulfonyl)azetidin-3-yl]acetonitrile]",≤ 1
13,"Cc1cc2c(ccc3nnc(C)n32)n1Cc1cccc(CNCCO)c1 [Example 36, 2-({3-[(1,7-dimethyl-6H-pyrrolo[2,3-e][1,2,4]triazolo[4,3-a]pyridin-6-yl)methyl]benzyl}amino)ethanol]",≤ 1
14,"CNC(=O)c1cc2c(ccc3nnc(C)n32)n1Cc1cccc(C(F)(F)F)c1 [Example 136, N,1-dimethyl-6-[3-(trifluoromethyl)benzyl]-6H-pyrrolo[2,3-e][1,2,4]triazolo[4,3-a]pyridine-7-carboxamide trifluoroacetate salt]",≤ 1
15,"Cc1cc2c(ccc3nnc(C)n32)n1Cc1cccc(F)c1 [Example 15, 6-(3-fluorobenzyl)-1,7-dimethyl-6H-pyrrolo[2,3-e][1,2,4]triazolo[4,3-a]pyridine]",≤ 1
16,"Cc1cc2c(cc(NS(C)(=O)=O)c3nnc(C)n32)n1Cc1ccccc1 [Example 271, N-(6-Benzyl-1,7-dimethyl-6H-pyrrolo[2,3-e][1,2,4]triazolo[4,3-a]pyridin-4-yl)methanesulfonamide]",≤ 1

row,Compound,IC50 [µM]
1,"Cc1cc2c(cc(NC3CCOCC3)c3nnc(C)n32)n1Cc1ccccc1 [Example 146, 6-benzyl-1,7-dimethyl-N-(tetrahydro-2H-pyran-4-yl)-6H-pyrrolo[2,3-e][1,2,4]triazolo[4,3-a]pyridin-4-amine]",1 to 10
2,"Cc1nnc2ccc3c(cc(-c4ccn(CCC(=O)N5CCN(C)CC5)n4)n3Cc3cccc(Cl)c3)n12 [Example 105, 6-(3-chlorobenzyl)-1-methyl-7-{1-[3-(4-methylpiperazin-1-yl)-3-oxopropyl]-1H-pyrazol-3-yl}-6H-pyrrolo[2,3-e][1,2,4]triazolo[4,3-a]pyridine]",≤ 1
3,"Cc1cc2c(cc(NC(N)=O)c3nnc(C)n32)n1Cc1cccc(C(F)(F)F)c1 [Example 230, 1-(1,7-Dimethyl-6-(3-(trifluoromethyl)benzyl)-6H-pyrrolo[2,3-e][1,2,4]triazolo[4,3-a]pyridin-4-yl)urea]",≤ 1
4,"Cc1cc2c(cc(O)c3nnc(C)n32)n1Cc1ccccc1 [Example 204, 6-Benzyl-1,7-dimethyl-6H-pyrrolo[2,3-e][1,2,4]triazolo[4,3-a]pyridin-4-ol trifluoroacetate salt]",1 to 10
5,"Cc1cc2c(cc(Nc3ccccc3)c3nnc(C)n32)n1Cc1ccccc1 [Example 260, 6-Benzyl-1,7-dimethyl-N-phenyl-6H-pyrrolo[2,3-e][1,2,4]triazolo[4,3-a]pyridin-4-amine]",1 to 10
6,"Cc1nnc2ccc3c(cc(-c4nccs4)n3Cc3ccccc3)n12 [Example 67, 6-benzyl-1-methyl-7-(1,3-thiazol-2-yl)-6H-pyrrolo[2,3-e][1,2,4]triazolo[4,3-a]pyridine]",≤ 1
7,"Cc1nc2c(ccc3nnc(C)n32)n1Cc1ccccc1 [Example 55, 3-benzyl-2,8-dimethyl-3H-imidazo[4,5-e][1,2,4]triazolo[4,3-a]pyridine]",≤ 1
8,"Cc1nnc2ccc3c(cc(-c4cn(CCC#N)cn4)n3Cc3ccccc3)n12 [Example 81, 3-[4-(6-benzyl-1-methyl-6H-pyrrolo[2,3-e][1,2,4]triazolo[4,3-a]pyridin-7-yl)-1H-imidazol-1-yl]propanenitrile]",≤ 1
9,"Cc1cc2c(ccc3nnc(C)n32)n1Cc1cccc(O)c1 [Example 23, 3-[(1,7-dimethyl-6H-pyrrolo[2,3-e][1,2,4]triazolo[4,3-a]pyridin-6-yl)methyl]phenol]",≤ 1
10,"CC(=O)N1CCC(Nc2cc3c(cc(C)n3Cc3ccccc3)n3c(C)nnc23)CC1 [Example 216, N-(1-Acetylpiperidin-4-yl)-6-benzyl-1,7-dimethyl-6H-pyrrolo[2,3-e][1,2,4]triazolo[4,3-a]pyridin-4-amine]",1 to 10
11,"CCNC(=O)CCn1ccc(-c2cc3c(ccc4nnc(C)n43)n2Cc2ccccc2)n1 [Example 96, 3-[3-(6-benzyl-1-methyl-6H-pyrrolo[2,3-e][1,2,4]triazolo[4,3-a]pyridin-7-yl)-1H-pyrazol-1-yl]-N-ethylpropanamide]",≤ 1
12,"CCN1CCC(Nc2cc3c(cc(C)n3Cc3ccccc3)n3c(C)nnc23)CC1 [Example 212, 6-Benzyl-N-(1-ethylpiperidin-4-yl)-1,7-dimethyl-6H-pyrrolo[2,3-e][1,2,4]triazolo[4,3-a]pyridin-4-amine]",≤ 1
13,"Cc1nnc2ccc3c(cc(-c4ncco4)n3Cc3cc(Cl)cc(CN4CCC4)c3)n12 [Example 195, 6-[3-(Azetidin-1-ylmethyl)-5-chlorobenzyl]-1-methyl-7-(1,3-oxazol-2-yl)-6H-pyrrolo[2,3-e][1,2,4]triazolo[4,3-a]pyridine bis(trifluoroacetate) salt]",≤ 1
14,"CNC(=O)c1cc2c(ccc3nnc(C)n32)n1Cc1cc(Cl)cc(CN2CC(C)(C)C2)c1 [Example 135, 6-{3-Chloro-5-[(3,3-dimethylazetidin-1-yl)methyl]benzyl}-N,1-dimethyl-6H-pyrrolo[2,3-e][1,2,4]triazolo[4,3-a]pyridine-7-carboxamide bis(trifluoroacetate) salt]",≤ 1
15,"Cc1nnc2ccc3c(cc(-c4ccn(C)n4)n3Cc3cc(Cl)cc(CN(C)C)c3)n12 [Example 191, 1-(3-Chloro-5-{[1-methyl-7-(1-methyl-1H-pyrazol-3-yl)-6H-pyrrolo[2,3-e][1,2,4]triazolo[4,3-a]pyridin-6-yl]methyl}phenyl)-N,N-dimethylmethanamine bis(trifluoroacetate) salt]",≤ 1

# Same assay, conditions: KMS.12.BM human myeloma cells, 3 days, Cell Titer-GLO ATP quantitation; read-out: KMS cellular IC50
row,Compound,IC50 [µM]
1,"Cc1nnc2ccc3c(cc(-c4ccn(CCC(=O)N(C)C)n4)n3Cc3cccc(Cl)c3)n12 [Example 103, 3-{3-[6-(3-chlorobenzyl)-1-methyl-6H-pyrrolo[2,3-e][1,2,4]triazolo[4,3-a]pyridin-7-yl]-1H-pyrazol-1-yl}-N,N-dimethylpropanamide]",≤ 1
